pIC50: −log10 of the molar value.

In general, pIC50 refers to −log10 of the IC50, conventionally taken in molar units.

For the test, the system named is sterol synthesis. The test is described as follows: CSI: inhibition of cholesterol biosynthesis, incorporation of cholesterol-^14 C-acetate into nonsaponifiable lipid by rat liver homogenate. In kind it is biochemical. The note with it: 50% inhibition of sterol synthesis over a one-hour period; liver homogenate of rats fed chow diet containing 5% cholestyramine for four days. As to the method:
The ability of compounds of the present invention to inhibit the biosynthesis of cholesterol was measured by the procedure described by R. E. Dugan et al., Archiv. Biochem. Biophys., (1972), 152, 21-27. In this method, designated CSI, the level of HMG-CoA enzyme activity in standard laboratory rats is increased by feeding the rats a chow diet containing 5% cholestyramine for four days, after which the rats are sacrificed.
The rat livers are homogenized, and the incorporation of cholesterol-^14 C-acetate into nonsaponifiable lipid by the rat liver homogenate is measured. The micromolar concentration of compound required for 50% inhibition of sterol synthesis over a one-hour period is measured, and expressed as an IC50 value.
Consider `CC(C)c1cc(-c2ccccn2)c(-c2ccc(F)cc2)n1CC[C@H]1C[C@H](O)CC(=O)O1` (racemic) [Compound 1, trans-(±)-6-[2-[2-(4-Fluorophenyl)-5-(1-methylethyl)-3-(2-pyridinyl)-1H-pyrrol-1-yl]ethyl]tetrahydro-4-hydroxy-2H-pyran-2-one], for which the pIC50 was 7.32.
With `CC(C)c1cc(-c2ccncc2)c(-c2ccc(F)cc2)n1CC[C@H]1C[C@H](O)CC(=O)O1` (racemic) [Compound 3, trans-(±)-6-[2-[2-(4-Fluorophenyl)-5-(1-methylethyl)-3-(4-pyridinyl)-1H-pyrrol-1-yl]ethyl]tetrahydro-4-hydroxy-2H-pyran-2-one], the pIC50 is 7.89.
Take `CC(C)c1cc(-c2cccnc2)c(-c2ccc(F)cc2)n1CC[C@@H]1C[C@@H](O)CC(=O)O1` (relative stereo) [Compound 2, trans-(±)-6-[2-[2-[(4-Fluorophenyl)-5-(1-methylethyl)-3-(3-pyridinyl)-1H-pyrrol-1-yl]ethyl]tetrahydro-4-hydroxy-2H-pyran-2-one]: the pIC50 was 7.26.
`CC[C@H](C)C(=O)O[C@H]1CCC=C2C=C[C@H](C)[C@H](CC[C@@H]3C[C@@H](O)CC(=O)O3)[C@H]21` [Compactin, reference compound]: the negative-log IC50 (pIC50) was 7.74.

(Values after patent US4735958A, “Trans-6-[2-[2-(substituted-phenyl)-3- (or 4-) heteroaryl-5-substituted-1H-pyrrol-1-yl]-ethyl]tetrahydro-4-hydroxy-2H-p yran-2-one inhibitors of cholesterol biosynthesis” (Warner-Lambert Company, priority 1986, dated 1988).)
